According to patent US9944602B2, “Piperidinone herbicides” (E. I. DU PONT DE NEMOURS AND COMPANY, priority 2014, dated 2018):

How the values were obtained:
Format in all cases: in vivo
[1] = system: sedge, umbrella (small-flower umbrella sedge, Cyperus difformis); assay: Test B flooded paddy test sedge, umbrella; conditions: Cyperus difformis, Table B, Flood, 250 g ai/ha, scale 0 to 100, read-out: Plant response rating
In short: (§1)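 Plants at 2-leaf stage in pots flooded 3 cm above soil; compounds applied directly into paddy water, depth kept throughout.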

[2] = system: galium (catchweed bedstraw, Galium aparine); assay: Test A postemergence galium; conditions: Galium, post-emergence, 240 h, 0 to 100 scale, 0 is no effect, 100 is complete control, read-out: Plant response rating, Galium; for pest or weed control at 125 g/ha: 125 g ai/ha; for pest or weed control at 500 g/ha: 500 g ai/ha
In short: (§2)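 Compounds in non-phytotoxic solvent with surfactant, applied preemergence as directed soil spray on seeds in loam–sand blend, or postemergence to plants 2–10 cm tall at one- to two-leaf stage. Greenhouse ~10 d, then visual injury versus untreated controls, 0 (no effect) to 100 (complete control).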

rice (Oryza sativa) = assay: Test B flooded paddy test rice; conditions: Oryza sativa, Table B, Flood, 250 g ai/ha, scale 0 to 100, read-out: Plant response rating
In short: as §1

kochia (Kochia scoparia) [3] = assay: Test A preemergence kochia; conditions: Bassia scoparia, pre-emergence, 240 h, 0 to 100 scale, 0 no effect, 100 complete control, read-out: Kochia plant response rating; for pest or weed control at 125 g/ha: 125 g ai/ha; for pest or weed control at 500 g/ha: 500 g ai/ha
In short: as §2

[4] = system: pigweed (Amaranthus retroflexus); assay: Test A preemergence pigweed; conditions: Amaranthus retroflexus, pre-emergence, 240 h, 0 to 100 scale, 0 no effect, 100 complete control, read-out: Pigweed plant response rating; for pest or weed control at 125 g/ha: 125 g ai/ha; for pest or weed control at 500 g/ha: 500 g ai/ha
In short: as §2

[5] = system: wheat (Triticum aestivum); assay: Test A postemergence wheat; conditions: Triticum aestivum, post-emergence, 240 h, 0 to 100 scale, 0 is no effect, 100 is complete control, read-out: Plant response rating, Wheat; for plant injury at 125 g/ha: 125 g ai/ha; for plant injury at 500 g/ha: 500 g ai/ha
In short: as §2

[6] = system: ragweed (common ragweed, Ambrosia elatior); assay: Test A preemergence ragweed; conditions: Ambrosia artemisiifolia, pre-emergence, 240 h, 0 to 100 scale, 0 no effect, 100 complete control, read-out: Ragweed plant response rating; for pest or weed control at 125 g/ha: 125 g ai/ha; for pest or weed control at 500 g/ha: 500 g ai/ha
In short: as §2

[7] = system: pigweed (Amaranthus retroflexus); assay: Test A postemergence pigweed; conditions: Amaranthus retroflexus, post-emergence, 240 h, 0 to 100 scale, 0 is no effect, 100 is complete control, read-out: Plant response rating, Pigweed; for pest or weed control at 125 g/ha: 125 g ai/ha; for pest or weed control at 500 g/ha: 500 g ai/ha
In short: as §2

[8] = system: ryegrass, Italian (Italian ryegrass, Lolium multiflorum); assay: Test A postemergence ryegrass, Italian; conditions: Lolium multiflorum, post-emergence, 240 h, 0 to 100 scale, 0 is no effect, 100 is complete control, read-out: Plant response rating, Ryegrass, Italian; for pest or weed control at 125 g/ha: 125 g ai/ha; for pest or weed control at 500 g/ha: 500 g ai/ha
In short: as §2

corn (Zea mays) = assay: Test A postemergence corn; conditions: Zea mays, post-emergence, 240 h, 0 to 100 scale, 0 is no effect, 100 is complete control; for Corn plant response rating (crop injury, 0 = no effect, 100 = complete kill) at 125 g/ha: 125 g ai/ha; for Corn plant response rating (crop injury, 0 = no effect, 100 = complete kill) at 500 g/ha: 500 g ai/ha
In short: as §2

[9] = system: barnyardgrass (Echinochloa crus-galli); assay: Test A postemergence barnyardgrass; conditions: Echinochloa crus-galli, post-emergence, 240 h, 0 to 100 scale, 0 is no effect, 100 is complete control, read-out: Plant response rating, Barnyardgrass; for pest or weed control at 125 g/ha: 125 g ai/ha; for pest or weed control at 500 g/ha: 500 g ai/ha
In short: as §2

[10] = system: ryegrass, Italian (Italian ryegrass, Lolium multiflorum); assay: Test A preemergence ryegrass, Italian; conditions: Lolium multiflorum, pre-emergence, 240 h, 0 to 100 scale, 0 no effect, 100 complete control, read-out: Ryegrass, Italian plant response rating; for pest or weed control at 125 g/ha: 125 g ai/ha; for pest or weed control at 500 g/ha: 500 g ai/ha
In short: as §2

[11] = system: ragweed (common ragweed, Ambrosia elatior); assay: Test A postemergence ragweed; conditions: Ambrosia artemisiifolia, post-emergence, 240 h, 0 to 100 scale, 0 is no effect, 100 is complete control, read-out: Plant response rating, Ragweed; for pest or weed control at 125 g/ha: 125 g ai/ha; for pest or weed control at 500 g/ha: 500 g ai/ha
In short: as §2

[12] = system: barnyardgrass (Echinochloa crus-galli); assay: Test A preemergence barnyardgrass; conditions: Echinochloa crus-galli, pre-emergence, 240 h, 0 to 100 scale, 0 no effect, 100 complete control, read-out: Barnyardgrass plant response rating; for pest or weed control at 125 g/ha: 125 g ai/ha; for pest or weed control at 500 g/ha: 500 g ai/ha
In short: as §2

[13] = system: barnyardgrass (Echinochloa crus-galli); assay: Test B flooded paddy test barnyardgrass; conditions: Echinochloa crus-galli, Table B, Flood, 250 g ai/ha, scale 0 to 100, read-out: Plant response rating
In short: as §1

[14] = system: ducksalad (Heteranthera limosa); assay: Test B flooded paddy test ducksalad; conditions: Heteranthera limosa, Table B, Flood, 250 g ai/ha, scale 0 to 100, read-out: Plant response rating
In short: as §1

kochia (Kochia scoparia) [15] = assay: Test A postemergence kochia; conditions: Bassia scoparia, post-emergence, 240 h, 0 to 100 scale, 0 is no effect, 100 is complete control, read-out: Plant response rating, Kochia; for pest or weed control at 125 g/ha: 125 g ai/ha; for pest or weed control at 500 g/ha: 500 g ai/ha
In short: as §2

[16] = system: foxtail, giant (giant foxtail, Setaria faberii); assay: Test A preemergence foxtail, giant; conditions: Setaria faberi, pre-emergence, 240 h, 0 to 100 scale, 0 no effect, 100 complete control, read-out: Foxtail, Giant plant response rating; for pest or weed control at 125 g/ha: 125 g ai/ha; for pest or weed control at 500 g/ha: 500 g ai/ha
In short: as §2

[17] = system: blackgrass (Alopecurus myosuroides); assay: Test A postemergence blackgrass; conditions: Alopecurus myosuroides, post-emergence, 240 h, 0 to 100 scale, 0 is no effect, 100 is complete control, read-out: Plant response rating, Blackgrass; for pest or weed control at 125 g/ha: 125 g ai/ha; for pest or weed control at 500 g/ha: 500 g ai/ha
In short: as §2

[18] = system: foxtail, giant (giant foxtail, Setaria faberii); assay: Test A postemergence foxtail, giant; conditions: Setaria faberi, post-emergence, 240 h, 0 to 100 scale, 0 is no effect, 100 is complete control, read-out: Plant response rating, Foxtail, Giant; for pest or weed control at 125 g/ha: 125 g ai/ha; for pest or weed control at 500 g/ha: 500 g ai/ha
In short: as §2

| Compound | pest or weed control at 250 g/ha [1] [%] | pest or weed control at 125 g/ha [2] [%] | pest or weed control at 500 g/ha [2] [%] | plant injury at 250 g/ha (rice (Oryza sativa)) [%] | pest or weed control at 125 g/ha (kochia (Kochia scoparia) [3]) [%] | pest or weed control at 500 g/ha (kochia (Kochia scoparia) [3]) [%] | pest or weed control at 125 g/ha [4] [%] | pest or weed control at 500 g/ha [4] [%] | plant injury at 125 g/ha [5] [%] | plant injury at 500 g/ha [5] [%] | pest or weed control at 125 g/ha [6] [%] | pest or weed control at 500 g/ha [6] [%] | pest or weed control at 125 g/ha [7] [%] | pest or weed control at 500 g/ha [7] [%] | pest or weed control at 125 g/ha [8] [%] | pest or weed control at 500 g/ha [8] [%] | Corn plant response rating (crop injury, 0 = no effect, 100 = complete kill) at 125 g/ha (corn (Zea mays)) [%] | Corn plant response rating (crop injury, 0 = no effect, 100 = complete kill) at 500 g/ha (corn (Zea mays)) [%] | pest or weed control at 125 g/ha [9] [%] | pest or weed control at 500 g/ha [9] [%] | further results |
| --- | --- | --- | --- | --- | --- | --- | --- | --- | --- | --- | --- | --- | --- | --- | --- | --- | --- | --- | --- | --- | --- |
| CN1CC[C@H](c2ccc(F)cc2)[C@@H](C(=O)Nc2ccccc2C(F)(F)F)C1=O [Compound 53, (3S,4S)-4-(4-fluorophenyl)-1-methyl-2-oxo-N-[2-(trifluoromethyl)phenyl]-3-piperidinecarboxamide] | 0 | 0 | 0 | 0 | 0 | 0 | 0 | 50 | 0 | 20 | 0 | 0 | 0 | 0 | 0 | 0 | 0 | 20 | 0 | 0 | pest or weed control at 125 g/ha [10]: 0%; pest or weed control at 500 g/ha [10]: 0%; pest or weed control at 125 g/ha [11]: 0%; pest or weed control at 500 g/ha [11]: 0%; pest or weed control at 125 g/ha [12]: 0%; pest or weed control at 500 g/ha [12]: 80%; pest or weed control at 250 g/ha [13]: 0%; pest or weed control at 250 g/ha [14]: 0%; pest or weed control at 125 g/ha (kochia (Kochia scoparia) [15]): 0%; pest or weed control at 500 g/ha (kochia (Kochia scoparia) [15]): 0%; pest or weed control at 125 g/ha [16]: 0%; pest or weed control at 500 g/ha [16]: 90%; pest or weed control at 125 g/ha [17]: 0%; pest or weed control at 500 g/ha [17]: 20%; pest or weed control at 125 g/ha [18]: 0%; pest or weed control at 500 g/ha [18]: 20% |
| O=C1NCC[C@H](c2ccc(F)cc2)[C@H]1C(=O)Nc1ccccc1C(F)(F)F [Compound 57, (3R,4S)-4-(4-fluorophenyl)-2-oxo-N-[2-(trifluoromethyl)phenyl]-3-piperidinecarboxamide] | 0 | 0 | 0 | 0 | 0 | 0 | 0 | 0 | 0 | 0 | 0 | 0 | 0 | 0 | 0 | 0 | 0 | 0 | 0 | 70 | pest or weed control at 125 g/ha [10]: 0%; pest or weed control at 500 g/ha [10]: 0%; pest or weed control at 125 g/ha [11]: 0%; pest or weed control at 500 g/ha [11]: 0%; pest or weed control at 125 g/ha [12]: 30%; pest or weed control at 500 g/ha [12]: 70%; pest or weed control at 250 g/ha [13]: 0%; pest or weed control at 250 g/ha [14]: 40%; pest or weed control at 125 g/ha (kochia (Kochia scoparia) [15]): 0%; pest or weed control at 500 g/ha (kochia (Kochia scoparia) [15]): 0%; pest or weed control at 125 g/ha [16]: 60%; pest or weed control at 500 g/ha [16]: 90%; pest or weed control at 125 g/ha [17]: 0%; pest or weed control at 500 g/ha [17]: 0%; pest or weed control at 125 g/ha [18]: 0%; pest or weed control at 500 g/ha [18]: 60% |
